Laboratory results published in patent US8242085B2, “Tetrahydrofuro [3,4-D] dioxolane compounds for use in the treatment of viral infections and cancer” (BioCryst Pharmaceuticals, Inc., priority 2007, dated 2012).

Test: in vivo test of prodrug hydrolysis to active compound
Conditions: tested in vivo

For C[C@@]12OC(c3ccc(Cl)cc3)O[C@@H]1[C@@H](CO)O[C@H]2c1coc2c(N)ncnc12 (stereo partly drawn) [Example 1, ((3aR,4R,6S,6aS)-6-(4-Aminofuro[3,2-d]pyrimidin-7-yl)-2-(4-chlorophenyl)-6a-methyltetrahydrofuro[3,4-d][1,3]dioxol-4-yl)methanol], which “hydrolysis of prodrug in vivo” value is on record?
The value was “hydrolyzes in vivo to provide an active compound”.
